Counter-ions that a name gives are not always drawn. Like-named read-outs stand apart in the source and are kept apart here.
Experiments:
eye [1] = assay: Topical instillation, ocular side effects / irritation in rabbits; assay type: in vivo, Dutch-belted rabbits
Description: (§1) For rabbit experiments Dutch-belted rabbits of either sex weighing 1.5 to 2 kg were used for topical studies. Each animal was randomly assigned one eye for the experimental and the other for its control solution. Intraocular pressure was measured using a Digilab Pneumotonometer. Any animals showing asymmetry of intraocular pressure greater than 2 mm were excluded form the study.
(§2) The protocol was as follows. Baseline intraocular pressure was taken in each eye using 0.5% proparacaine hydrochloride for topical anesthesia. […] In a half hour this was repeated. Two hours later intraocular pressure was measured in each eye. In some animals intraocular pressure was also measured five hours later and all animals had measurement of intraocular pressure the following day.
(§3) Ethacrynic acid powder was dissolved in 3% methylcellulose to yield the desired concentration. […] The solution was refrigerated over night to yield a transparent, viscous fluid. The pH of the solution was determined by mixing one part of the control or experimental solution with five parts of distilled water. […] The 3% methylcellulose solution was refrigerated when not in use.
(§4) Experiments similar to those described above have also been performed using two esters of ethacrynic acid, RCOOCH2 CH2 N(CH2 CH3)2 (hereinafter "ester A") and RCOOCH2 CH2 CH2 N(CH2 CH3)2 (hereinafter "ester B"), where R is [2,3-dichloro-4-(2-methylene-1-oxobutyl)phenoxy]acetate.
(§5) In all these topical experiments 2 drops of the agent were given 5 minutes apart and control eyes were fully sham manipulated. […] However, not all the animals were slit lamped.

Solution stability = assay type: physicochemical
Description: (§6) Each vial of ethacrynic acid contained ethacrynate sodium powder equivalent to 50 mg of ethacrynic acid. […] The powder was diluted with the above basic medium (Dulbecco's with added glucose) to yield the desired concentration. The solution was mixed at room temperature until dissolved, and the pH was determined (always 7.2) before use; the solution was filtered with a 0.2 micron filter (Nuclepore); this produced a solution which was stable for 24 hours.
Ethacrynic acid powder was dissolved in 3% methylcellulose to yield the desired concentration. The solution was mixed at room temperature for one hour and was stable for 24 hours. A similar osmotically balanced control solution was prepared from methyl cellulose powder dissolved in distilled water using low heat for several hours. The solution was refrigerated over night to yield a transparent, viscous fluid. The pH of the solution was determined by mixing one part of the control or experimental solution with five parts of distilled water. The pH ranged between 6.2 and 6.5 for both the control and experimental solutions. The 3% methylcellulose solution was refrigerated when not in use.

eye [2] = assay: Ocular changes and intraocular pressure after perfusion in monkeys; assay type: in vivo, cynomologous monkeys
Description: (§7) Ethacrynic acid (sodium salt) was used to increase aqueous humor outflow in cynomologous monkeys, as described below. Ethacrynic acid can be purchased from Merck, Sharp, and Dome, and is described in U.S. Pat. No. 3,255,241, hereby incorporated by reference. Ethacrynic acid has the chemical formula [2,3-dichloro-4-(2-methylene-1-oxobutyl) phenoxy] acetic acid. Any suitable analog described in U.S. Pat. No. 3,255,241 or its ester or amide derivative can also be used as described herein; for example, the following compounds may be used and are available from Allergan, Inc. (Irvine, Calif.), as indicated by the code number below the structure. [drawing 4]
(§8) Each animal was randomly assigned one eye for the experimental and the other for its control perfusion. The animals were fasted the night before the experiment. They were anesthetized intramuscularly with Methohexital Sodium 15 mg/kg and Pentobarbital Sodium 35 mg/kg. Supplemental anesthesia as required was carried out with Pentobarbital 10 mg/kg/hour. Needles were placed through the cornea into the anterior chamber and a two-step constant pressure perfusion method was performed in order to determine aqueous humor outflow facility. The basic medium for perfusion was Dulbecco's phosphate buffered saline with added 5.5 mM glucose. A 10 microliter bolus of the experimental or control solution (that would produce the desired final concentration in the anterior chamber) was injected through a T shaped connector piece in the infusion line.
as §6
(§9) During perfusion experiments, a 10 microliter bolus injection was made using a Hamilton syringe. Since the monkey anterior chamber is approximately 200 microliters, 10 microliters of 10 mM ethacrynic acid was infused to achieve a final concentration of 0.5 mM ethacrynic acid.
Experiments were carried out using final ethacrynic acid concentrations in the aqueous humor of 0.1 mM to 0.5 mM. There were at least three animals and separate experiments carried out for each of the concentrations 0.1 MM, 0.25 mM, and 0.5 mM.

intraocular pressure [3] = assay: Topical instillation, intraocular pressure in rabbits; assay type: in vivo, Dutch-belted rabbits
Description: as §1, §2, §3, §4, §5

[4] = system: aqueous humor outflow (trabecular meshwork); assay: Two-step constant pressure perfusion of anterior chamber; aqueous humor outflow facility in cynomolgus monkeys in vivo; parameters: species or system cynomologous monkeys
Description: as §7, §8, §6
The control solution was composed of 9.5 mg sodium chloride (to osmotically balance the experimental solution), 62.5 mg mannitol and 0.1 milliliter thimerosol dissolved in Dulbecco's phosphate buffered saline with 5.5 mM added glucose to yield the desired concentration.
as §9
[…] There were at least three animals and separate experiments carried out for each of the concentrations 0.1 MM, 0.25 mM, and 0.5 mM.

[5] = system: calf eye outflow facility; conditions: perfusion at 15 mm Hg and 22° C.; cited from earlier work
monkey eye outflow = conditions: perfusion at 15 mm Hg and 22° C.; cited from earlier work
Water solubility = assay type: physicochemical
cornea = assay: Topical application, corneal edema in the monkey (flashlight and slit lamp examination); assay type: in vivo
Description: as §4
(§10) In the monkey, a significant pressure reduction 24 hours after application of 10 mM ester A was observed (control eyes changing from 17±3 to 21±2 mm Hg versus experimental eyes changing from 19±1 to 5±3 mm Hg; n=6). […] This was detected by flashlight examination and confirmed by slit lamp examination.

intraocular pressure [6] = assay: Topical application, intraocular pressure in the monkey; assay type: in vivo
Description: as §4
After topical application of 10 mM ester A, a reduction in intraocular pressure in the rabbit was observed. This was most apparent 24 hours after instillation ([…] intraocular pressure changing from 22±3 to 15±2 mm Hg; n=8). In all these topical experiments 2 drops of the agent were given 5 minutes apart and control eyes were fully sham manipulated. […] However, not all the animals were slit lamped.
as §10

With C=C(CC)C(=O)c1ccc(OCC(=O)O)c(Cl)c1Cl [ethacrynic acid, [2,3-dichloro-4-(2-methylene-1-oxobutyl)phenoxy] acetic acid] the conjunctival side effect (eye [1]; 5 mM topical) was “slight conjunctival infection”, the other side effects (eye [1]; 5 mM topical) was “no other side effects noted” and the “conjunctival side effect and irritation” value (eye [1]; 10 mM topical) was “moderate conjunctival infection and signs of irritation”. For the same compound, the “resolution of corneal toxicity and inflammation” value (eye [1]; higher concentrations (above 10 mM)) was “resolved without apparent sequelae”, the “corneal toxicity and anterior chamber inflammation” value (eye [1]; higher concentrations (above 10 mM), for several days) was “signs of corneal toxicity (corneal edema) and anterior chamber inflammation were apparent for several days” and the stability of solution (Solution stability) was 24 h. The “intraocular pressure after perfusion” value (eye [2]; a few days after the perfusion experiments) was “symmetrical and normal in both eyes”, the dilated pupil (eye [2]; dosages above 0.25 mM, treated eye) was “some of the animals developed a dilated pupil” and the “chronic corneal edema, opacities or cataract formation” value (eye [2]; perfusion) was “no chronic corneal edema or opacities or cataract formation”. For the same compound, the “corneal or crystalline lens changes” value (eye [2]; perfusion) was “no apparent corneal or crystalline lens changes”, the “intraocular pressure, treated eye” value (intraocular pressure [3]; 5 mM in 3% methylcellulose, 2 hours, from 22.4 baseline, control eye 21.5 to 23.1, n=8, p less than 0.01) was 19.6 mm Hg and the “intraocular pressure, treated eye” value (intraocular pressure [3]; 5 mM in 3% methylcellulose, next day, control eye 22.7) was 22.4 mm. For the same compound, the “intraocular pressure, treated eye” value (intraocular pressure [3]; 10 mM and 3% methylcellulose, 24 hours, from 23.0 baseline, control eye 22.9 to 24.2, n=14, p less than 0.001) was 20.0 mm Hg, the “response in outflow facility” value ([4]; 0.25 mM) was “approximately half the animals perfused responded with a substantial increase in outflow facility” and the “mean increase in fluid outflow facility” value ([4]; 0.5 mM final concentration in anterior chamber, control perfused eye no change) was 140%. For the same compound, the “increase in outflow facility” value ([4]; 1.0 mM, one animal, 18% increase in control eye) was 355% and the “effect on outflow facility” value ([4]; lower dosages (below 0.25 mM)) was “no effect”.
With C=C(CC)C(=O)c1ccc(OCC(=O)OCCCN(CC)CC)c(Cl)c1Cl [ester B, RCOOCH2 CH2 CH2 N(CH2 CH3)2] the signs of irritation (eye [1]; 10 mM ester B, at 24 hours) was “only minimal if any signs of irritation”, the “slit lamp observation of ocular inflammation” value (eye [1]; 10 mM ester B, at 24 hours) was “no slit lamp observations of ocular inflammation” and the “intraocular pressure, experimental eyes” value (intraocular pressure [3]; 10 mM ester B, 24 hours, from 23±3, control eyes 24±2 to 24±2, n=5) was 15±3 mm Hg.
In the case of CCN1C(=O)C=CC1=O [NEM, N-ethylmaleimide], the “dosage producing a significant increase in the facility of outflow” value [5] is listed as no less than 4.7 mM and the “outflow in the monkey eye” value (monkey eye outflow) is listed as “increase in outflow”.
Work on C=C(CC)C(=O)c1ccc(OCC(=O)O)c(Cl)c1Cl [sodium salt of ethacrynic acid] yielded a stability of solution (Solution stability; Dulbecco's phosphate buffered saline with 5.5 mM glucose, pH 7.2) of 24 h and a solubility (Water solubility) of roughly 40 mM.
For C=C(CC)C(=O)c1ccc(OCC(=O)OCCN(CC)CC)c(Cl)c1Cl [ester A, RCOOCH2 CH2 N(CH2 CH3)2], the corneal edema (cornea; 5 mM ester A) was “corneal edema was likewise apparent”, the corneal edema (cornea; 10 mM ester A) was “significant corneal edema was also observed in over half of the monkeys” and the “resolution of corneal edema” value (cornea; ester A topical, all animals) was “corneal edema ultimately resolved in all animals”. The irritation (eye [1]; 5 mM ester A, two rabbits) was “minimal if any irritation”, the anterior chamber inflammation (eye [1]; 10 mM ester A) was “No anterior chamber inflammation was observed” and the “clearing of external irritation of the lid” value (eye [1]; 10 mM ester A) was 24 h. For the same compound, the “irritation of eyelid, conjunctiva, nictitating membrane” value (eye [1]; 10 mM ester A) was “Most of the animals demonstrated some irritation of the eyelid and a few to the conjunctiva and nictitating membrane”, the corneal changes (eye [1]; 10 mM ester A, not all animals slit lamped) was “no corneal changes were observed” and the pressure reduction (intraocular pressure [6]; 5 mM ester A) was “no pressure reduction was documented”. The “intraocular pressure, experimental eyes” value (intraocular pressure [6]; 10 mM ester A, 24 hours, from 19±1, control eyes 17±3 to 21±2, n=6) was 5±3 mm Hg and the intraocular pressure (intraocular pressure [3]; 10 mM ester A, 24 hours after instillation, from 22±3, n=8, printed as control eye) was 15±2 mm Hg.

Reference: patent US5863948A, “Increasing aqueous humor outflow” (priority 1994, dated 1999)
